Laboratory results reported in PMC8509676, “Residual Helicity at the Active Site of the Histidine Phosphocarrier, HPr, Modulates Binding Affinity to Its Natural Partners” (International Journal of Molecular Sciences, 2021).
Like-named read-outs stand apart in the source and are kept apart here.

How the values were obtained:
[1] = system: Staphylococcus aureus CECT59; assay type: cell-based
Experimental: The CECT59 strain of the Gram-positive bacteria Staphylococcus aureus from the Spanish Type Culture Collection (Colección Española de Cultivos Tipo, CECT, Universitat de Valencia, Spain) was used for determining its sensitivity to the HPr peptides studied in this work. The MIC for each peptide was determined by the two-fold broth microdilution method according to the Clinical and Laboratory Standards Institute (CLSI) guidelines, with some modifications as previously described. For this testing procedure, a bacteria colony previously grown in MH agar plates was isolated and incubated in MH broth at 37 °C overnight to prepare the bacteria inoculum to be used in each assay. Then, the bacteria suspensions were adjusted to a 100× dilution of an 0.5 McFarland turbidity standard in MH broth and incubated with different concentrations of each peptide in round-bottom 96-well polystyrene plates (Deltalab S.L., Rubí, Spain) (50 μL/well) for 24 h at 37 °C. The peptide concentrations employed comprised two-fold dilutions starting at either 120, 160, or 400 µM, depending on the experiment. […] All assays were performed in triplicate.

[2] = Far-UV CD, helicity from molar ellipticity at 222 nm; assay type: physicochemical; details: 5 °C; for [Θ]^222 (value in parentheses): 50 mM Tris pH 7.0; for Helicity (%): 50 mM Tris pH 7.0, from [Θ]^222 assuming −39,500 deg cm^2 dmol^−1 for a fully formed α-helix
Experimental: Spectra were collected on a Jasco J810 spectropolarimeter (Jasco, Tokyo, Japan) interfaced with a Peltier unit. Far-UV measurements were performed with samples placed in quartz cells with a 0.1 cm path length (Hellma, Kruibeke, Belgium), with a response time of 2 s, a band width of 1 nm, and a scan velocity of 50 nm/min. For all peptides, a wide range of concentrations (10–50 µM) was used to determine whether either the shape or the intensity of the spectra was concentration-dependent. None of those features changed in the concentration range explored. The experiments in aqueous solution were acquired at 5 °C in Tris buffer (50 mM, pH 7.0). Raw ellipticity was converted to molar ellipticity, [Θ], from which the fraction of helical populations was determined as previously described. For the experiments in the presence of each protein (repeated three times), the same concentration used in the fluorescence experiments was used, and the experimental set-up was the same as described above for the isolated peptides.

[3] = Translational diffusion NMR (DOSY); assay type: physicochemical; details: for D (translational diffusion coefficient): DOSY, 10 °C, 100% D2O, 70-120 µM peptide, fitting errors, repeated twice; for Rh (in parentheses, from DOSY): from comparison with the Rh of dioxane (2.12 Å)
Experimental: (b) Translational diffusion NMR (DOSY): Peptide concentrations were the same as those used in the 1D-^1H-NMR spectra. Translational self-diffusion measurements were performed with the pulsed-gradient spin-echo sequence in the presence of 100% D2O. The following relationship existed between the translational self-diffusion coefficient, D, and the delays used during experiment acquisition:(2) I/I0=−exp(DγH2δ^2G^2(Δ−δ/3−τ/2)) where I is the peak intensity of a particular resonance (or a group of them) at any gradient strength; I0 is the maximum peak intensity of the same resonance(s) at the smallest gradient strength (that is, at 2% of the total power of the gradient coil); D is the translational self-diffusion constant (in cm^2 s^−1); δ is the duration (in s) of the gradient; G is the gradient strength (in T cm^−1); ∆ is the time (in s) between the gradients; γH is the gyromagnetic constant of the proton (in rad s^−1 T^−1); and τ is the recovery delay between the bipolar gradients (100 µs in our experiments). The gradient strength (G) was varied in 16 lineal steps, between 2 and 95% of the total power of the gradient coil of the probe. The gradient strength was calibrated by using the value of D for the residual proton water line in a sample containing 100% D2O placed in a 5 mm tube [42]. Data were plotted as I/I0 versus G^2, and the exponential factor of the curve was:(3) DγH2δ^2(Δ−δ/3−τ/2) from which D can be obtained. The duration of the gradient (δ) was 2.25 ms, and the time between the two gradients (∆) was set to 200 ms. The signal from the methyl groups between 1.1 and 0.70 ppm were used for integration of the intensity. A final concentration of 1% of dioxane was added to each peptide; the hydrodynamic radius, Rh, of each peptide was obtained for comparison by assuming that the Rh of dioxane was 2.12 Å [42]. The DOSY experiment was repeated twice with fresh samples for each peptide.

[4] = TFE titration followed by far-UV CD (disordered-helical two-state equilibrium); assay type: physicochemical; details: for [TFE]1/2 / m: TFE titration by far-UV CD, 20 µM peptide, two-state fit, fitting errors; for percentage of helical population (in parentheses): from ∆G^water assuming a two-state conformational equilibrium; for ∆G^water: product of m- and [TFE]1/2 values, error propagation
Experimental: For experiments in the presence of TFE, the same set of experimental parameters was used. Cosolvent concentrations were indicated in percentage of volume (%). […] The peptide concentration for these experiments was 20 µM.

Rsd^ec = target: T1, Rsd^ec (Escherichia coli, UniProt P0AFX4); assay: Isothermal titration calorimetry (ITC), peptide/Rsd^ec binding; details: ITC, 25 °C; for ΔH, Rsd^ec: 50 mM Tris pH 7.0
T1 construct: His-tag; made in house; host or cells: E. coli C41
Experimental: The experimental set-up and data processing of ITC experiments has been described previously. Rsd^ec or EIN^sc (at 10–20 µM) were injected into the cell, and the peptides in the syringe (100–200 µM) in 50 mM of Tris buffer, pH 7.0. The temperature for all the experiments was 25 °C. Typically, each calorimetric titration consisted of performing 19 injections with 2 μL volume, with a time spacing of 150 s, while stirring at 750 rpm in an Auto-iTC200 high-sensitivity microcalorimeter (MicroCal, Malvern-Panalytical, Malvern, UK). The results were analysed by applying a model that considered a single binding site (assuming a 1:1 stoichiometry) for the peptide/EIN^sc or peptide/Rsd^ec interaction using a nonlinear least-squares regression analysis in Origin 7.0 (OriginLab, Northampton, MA, USA) with user-defined fitting routines.

[5] = target: T2, Regulator of sigma D from Escherichia coli (Rsd^ec) (E. coli, UniProt P0AFX4 1-158); assay: ITC; Rsd^ec or EIN^sc (10–20 µM) in the cell, peptide (100–200 µM) in the syringe; 50 mM Tris, pH 7.0, 25 °C; single binding-site model, 1:1 stoichiometry assumed; details: both partners purified
T2 construct: Rsd (regulator of sigma D), anti-sigma factor of sigma 70, E. coli; 158-residue-long protein; called 'intact Rsd' in the abstract and 'wild-type Rsd vector' in the methods; Vector was a gift from Ann Hochschild; source: E. coli C41, purified as described [24,50]
T2 sequence (looked up): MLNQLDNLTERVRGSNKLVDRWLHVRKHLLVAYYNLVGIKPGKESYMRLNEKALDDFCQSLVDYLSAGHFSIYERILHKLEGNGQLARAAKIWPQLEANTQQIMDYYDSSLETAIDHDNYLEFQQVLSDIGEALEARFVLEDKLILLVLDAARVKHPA

[6] = target: T3, N-terminal domain of EI from Streptomyces coelicolor (EIN^sc) (Streptomyces coelicolor); assay: as above; details: both partners purified
T3 chain: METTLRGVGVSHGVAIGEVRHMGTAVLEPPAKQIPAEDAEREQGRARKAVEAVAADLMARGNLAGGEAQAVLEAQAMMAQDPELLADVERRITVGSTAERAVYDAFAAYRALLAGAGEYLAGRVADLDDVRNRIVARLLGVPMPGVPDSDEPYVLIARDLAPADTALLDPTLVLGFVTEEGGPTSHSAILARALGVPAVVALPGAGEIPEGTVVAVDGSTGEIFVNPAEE

[7] = target: T3, N-terminal domain of EI from …; assay: other fluorescence titration; peptide 0–30 µM added to 3 µM Rsd^ec or EIN^sc; 50 mM Tris, pH 7.0, 25 °C; samples left overnight at 5 °C; blank of peptide subtracted; details: both partners purified
[8] = S. aureus CECT59, two-fold broth microdilution (CLSI), MH broth, 24 h, 37 °C, triplicate (sd = 0), highest concentration tested 400 µM

For “Ac-GWAEGLHARAASAFARAATATG-NH2 [P18A/I21A/V23A]”, which MIC ([1]; CECT59, 24 h) is on record?
Its MIC is 60 µM.

What about the “[Θ]^222 (value in parentheses)” value [2] of the same molecule?
The value was −2698.61 deg cm^2 dmol^−1.

What about the “Helicity (%)” value [2] of the same molecule?
The value was 6.8%.

And the “D (translational diffusion coefficient)” value [3]?
The value was 2.5 ± 0.4 cm^2 s^−1 × 10^6.

What about the “Rh (in parentheses, from DOSY)” value [3] of the same molecule?
The value was 9 ± 2 Å.

And the “[TFE]1/2” value [4]?
The value was 19.0 ± 0.9 % (v/v).

And the m [4]?
The m was 184 ± 32 cal/mol (% (v/v)).

What about the “percentage of helical population (in parentheses)” value [4] of the same molecule?
Its value is 0.17%.

And the “∆G^water” value [4]?
Its value is 3.5 ± 0.6 kcal/mol.

What about the “ΔH, Rsd^ec” value (Rsd^ec) of the same molecule?
The value was 0.6 ± 0.4 kcal/mol.

And the Kd (Rsd^ec; 50 mM Tris pH 7.0, single binding-site model, read-out: Kd, Rsd^ec (ITC))?
The Kd was 2600 ± 400 nM.

What does the source list for “Ac-GWAEGLHARPASIAVRAATATG-NH2 [Peptide F22A]”?
MIC [1, 8]: 400 µM; [Θ]^222 (value in parentheses) [2]: −84.95 deg cm^2 dmol^−1; Helicity (%) [2]: 0.2%; D (translational diffusion coefficient) [3]: 1.83 ± 0.03 cm^2 s^−1 × 10^6; Rh (in parentheses, from DOSY) [3]: 11 ± 1 Å; [TFE]1/2 [4]: 22 ± 1 % (v/v); m [4]: 134 ± 27 cal/mol (% (v/v)); percentage of helical population (in parentheses) [4]: 0.5%; ∆G^water [4]: 2.9 ± 0.6 kcal/mol; ΔH, Rsd^ec (Rsd^ec): 1.1 ± 0.5 kcal/mol

Which results are given for “Ac-GWAEGLHARAASIFVRAATATG-NH2 [Peptide P18A]”?
MIC [1, 8]: 120 µM; [Θ]^222 (value in parentheses) [2]: −1135.47 deg cm^2 dmol^−1; Helicity (%) [2]: 2.9%; D (translational diffusion coefficient) [3]: 2.0 ± 0.1 cm^2 s^−1 × 10^6; Rh (in parentheses, from DOSY) [3]: 11 ± 1 Å; [TFE]1/2 [4]: 19.8 ± 0.4 % (v/v); m [4]: 181 ± 17 cal/mol (% (v/v)); percentage of helical population (in parentheses) [4]: 0.15%; ∆G^water [4]: 3.6 ± 0.3 kcal/mol; ΔH, Rsd^ec (Rsd^ec): 1.1 ± 0.4 kcal/mol

B1: HPr^9–30 wild-type peptide (residues 9-30 of HPr from Streptomyces coelicolor) (peptide)
peptide: Ac-GWAEGLHARPASIFVRAATATG-NH2
notes: HPr (histidine phosphocarrier) of Streptomyces coelicolor, HPr^sc, residues 9-30; first letter printed as G^9; The limit residues are printed as Gly9-Ala30 (abstract) and Ala9-Gly30 (introduction); source: synthetic peptide, bought: NZYTech (purity >95%)
Which results are given for B1?
Kd [5]: 1400 ± 300 nM; dH [5]: 1.3 ± 0.4 kcal/mol; Kd [6]: 2300 ± 400 nM; dH [6]: -0.8 ± 0.4 kcal/mol; Kd [7]: 10000 nM

B2: HPr^9–30 I21A peptide (peptide)
peptide: Ac-GWAEGLHARPASAFVRAATATG-NH2
notes: HPr of Streptomyces coelicolor, residues 9-30, with I21A; source: synthetic peptide, bought: NZYTech (purity >95%)
For B2, which dH [5] is on record?
Its dH is 1 ± 0.4 kcal/mol.

B3: HPr^9–30 P18A peptide (peptide)
peptide: Ac-GWAEGLHARAASIFVRAATATG-NH2
notes: HPr of Streptomyces coelicolor, residues 9-30, with P18A; source: synthetic peptide, bought: NZYTech (purity >95%)
Which Kd [5] does the source give for B3 here?
The Kd was 2200 ± 400 nM.

And the dH [5]?
The dH was 1.1 ± 0.4 kcal/mol.

B4: HPr^9–30 P18A/I21A/F22A/V23A peptide (peptide)
peptide: Ac-GWAEGLHARAASAAARAATATG-NH2
notes: HPr of Streptomyces coelicolor, residues 9-30, with P18A, I21A, F22A and V23A; also called quadruple-mutant; source: synthetic peptide, bought: NZYTech (purity >95%)
With B4 as the molecule, how does the dH [5] read?
Its dH is 4.3 ± 0.5 kcal/mol.

And the Kd [6]?
Its Kd is 1100 ± 200 nM.

And the dH [6]?
The dH was 0.2 ± 0.4 kcal/mol.

What about the Kd [7] of the same molecule?
The Kd was 11000 nM.

B5: HPr^9–30 P18A/I21A/V23A peptide (peptide)
peptide: Ac-GWAEGLHARAASAFARAATATG-NH2
notes: HPr of Streptomyces coelicolor, residues 9-30, with P18A, I21A and V23A; also called triple-mutant; source: synthetic peptide, bought: NZYTech (purity >95%)
For B5, which Kd [5] is on record?
Its Kd is 2600 ± 400 nM.

What about the dH [5] of the same molecule?
The dH was 0.6 ± 0.4 kcal/mol.

B6: HPr^9–30 V23A peptide (peptide)
peptide: Ac-GWAEGLHARPASIFARAATATG-NH2
notes: HPr of Streptomyces coelicolor, residues 9-30, with V23A; source: synthetic peptide, bought: NZYTech (purity >95%)
Which Kd [5] does the source give for B6 here?
Its Kd is 8300 ± 900 nM.

And the dH [5]?
The dH was -0.8 ± 0.5 kcal/mol.

And the Kd [6]?
The Kd was 9100 ± 900 nM.

And the dH [6]?
The dH was -6.6 ± 0.5 kcal/mol.

And the Kd [7]?
Its Kd is 9000 nM.
